According to patent US4520026A, “Indolizine derivatives and use as cardiovascular agents” (S. A. Labaz N.V., priority 1982, dated 1985):

Tests used:
[1] = Acute toxicity by intravenous route to rats; assay type: in vivo; settings: rat, in vivo, oxalate acid form except those marked (hydrochloride)
Procedure: (§1) Acute toxicity tests were carried out on rats and mice. The following results were registered in comparison with butoprozine. The compounds of the invention were used in oxalate acid form except those marked (x) which were tested in hydrochloride form.

[2] = Acute toxicity by intragastric route to mice; assay type: in vivo; settings: mouse, in vivo, po, oxalate acid form except those marked (hydrochloride)
Procedure: as §1

[3] = test system: mice; assay: Acute toxicity by intragastric route to mice; assay type: in vivo; settings: hydrochloride form (marked)
Procedure: as §1

[4] = Acute toxicity by intravenous route to mice; settings: mouse, in vivo, oxalate acid form except those marked (hydrochloride)
Procedure: as §1

[5] = test system: rats; assay: Acute toxicity by intravenous route to rats; assay type: in vivo; settings: oxalate acid form except those marked (hydrochloride)
Procedure: as §1

[6] = Blood level after oral dose in the dog; assay type: in vivo; settings: same oral dose
[7] = test system: epinephrine-accelerated heart rate (anti-β effect); assay: Antiadrenergic effect: anti-β effect (reduction of epinephrine-accelerated heart rate); assay type: in vivo; settings: dog; for inhibition in vivo at 5 mg/kg: Canis lupus familiaris, iv, dose 5 mg/kg i.v.
Summary of the method: (§2)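 Pentobarbital-anaesthetized, atropinized dogs given an epinephrine dose (5–10 μg/kg) raising arterial pressure about 100 mm Hg, then test compound i.v. Reduction of the pressor response (anti-α) and of the ~70-beat tachycardia (anti-β) scored: + <50%, ++ ≥50%, +++ subtotal.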

[8] = test system: ventricular fibrillation; assay: Anti-arrhythmic properties, LAWSON test (chloroform-provoked arrhythmia), intragastric; assay type: in vivo; settings: Mus musculus, po, mice, read-out: AD50 (dose protecting 50% of the animals against ventricular fibrillation)
Procedure: The arrhythmia was provoked by making the animals inhale chloroform to total asphyxia and by later observing the ventricular rhythm. The dose of compound protecting 50% of the animals against ventricular fibrillation i.e. the AD50 was then recorded.

[9] = test system: epinephrine-increased blood-pressure (anti-α effect); assay: Antiadrenergic effect: anti-α effect (reduction of epinephrine-increased blood-pressure); assay type: in vivo; settings: dog
Summary of the method: as §2

[10] = test system: blood-flow to the myocardium; assay: Effect on blood-flow to the myocardium, anaesthetized dogs, intravenous; assay type: in vivo, dog; settings: dose 10 mg/kg i.v., anaesthetized dog
Procedure: It was undertaken on anaesthetized dogs which received the substance under study by intravenous route. The intensity of the maximum effect on blood-flow to the myocardium was expressed in percentage of the corresponding value before injection. The time required for the maximum effect to decrease by 50% represented the duration of the effect. This time was measured in minutes.

[11] = test system: dog; assay: Cardiac tolerance and general toxicity in long-term toxicity tests, oral, dog; settings: in vivo
[12] = test system: consumption of oxygen by the myocardium; assay: Consumption of oxygen by the myocardium; settings: in vivo
Excerpt: Furthermore, the indolizine derivatives present a β-antiadrenergic effect which is much more powerful than that of the derivatives of the aforesaid U.S. patent. At the minimum dose required to produce bradycardia, a reduction in arterial pressure, α-antiadrenergic and coronarodilatory effects to a significant degree, the β-antiadrenergic effect is, in fact, only slight in the case of the derivatives of the U.S. patent in question whereas it is much stronger with the indolizine derivatives of the invention. Moreover, the compounds of the invention reduce the consumption of oxygen by the myocardium calculated by multiplying the difference between the arterial and venous blood in oxygen by the coronary blood-flow. Thus, the compounds of the invention cause a considerable reduction in the arterio-venous difference which induces a decrease in the consumption of oxygen in spite of the increase of the coronary blood-flow.

Compound	LD50 [1]	LD50 [2]	LD50 [4]	LD0 [5]	inhibition in vivo at 5 mg/kg [7]	ED50 [8]	Anti-α effect ([9]; dose 5 mg/kg i.v.)	further results
CCCCN(CCCC)CCCOc1ccc(C(=O)c2c(C)c(Br)c3ccccn23)cc1Br.Cl [(*)Br/Br/H/CH3/n-C4H9/3, 1-Bromo-2-methyl-3-[4-(3-di-n-butylaminopropyl)-oxy-3-bromo-benzoyl]-indolizine hydrochloride]	70 mg/kg	> 5000 mg/kg	50 mg/kg					LD0 [3]: > 5000 mg/kg
CCCCc1cc2ccccn2c1C(=O)c1ccc(OCCCN(CCCC)CCCC)c(Cl)c1.Cl [(*)H/Cl/H/n-C4H9/n-C4H9/3, 2-n-butyl-3-[4-(3-di-n-butylaminopropyl)-oxy-3-chloro-benzoyl]-indolizine hydrochloride]	> 50 mg/kg			> 50 mg/kg				
CCCCN(CCCC)CCCOc1ccc(C(=O)c2c(C)c(Br)c3ccccn23)cc1Br [Br/Br/H/CH3/n-C4H9/3, 1-Bromo-2-methyl-3-[4-(3-di-n-butylaminopropyl)-oxy-3-bromo-benzoyl]-indolizine]					> 50%	180 mg/kg	+++	Blood level compared with butoprozine [6]: three times higher; Anti-β effect ([7]; dose 10 mg/kg i.v.): +++; Anti-α effect ([9]; dose 10 mg/kg i.v.): +++
CCCCN(CCCC)CCCOc1ccc(C(=O)c2c(-c3ccc(Cl)cc3)c(Br)c3ccccn23)cc1Cl [Br/Cl/H/drawing 50/n-C4H9/3]	> 100 mg/kg			> 100 mg/kg				
CCCCN(CCCC)CCCOc1ccc(C(=O)c2c(CC)cc3ccccn23)cc1 [Butoprozine, 2-ethyl-3-[4-(3-di-n-butylaminopropyl)-oxy-benzoyl]-indolizine, reference compound]	22 mg/kg	1600 mg/kg	25 mg/kg		< 50%	270 mg/kg	+++	change in vivo at 10 mg/kg ([10]; Canis lupus familiaris, iv, read-out: Max. increase (blood-flow to the myocardium)): 120%; Time required to decrease to 50% (duration of effect) [10]: 4 min; Dose provoking ventricular arrhythmia (as low as) [11]: 50 mg/kg/day; Lethal dose [11]: 50 to 100 mg/kg/day
OCCN(CCO)c1nc(N2CCCCC2)c2nc(N(CCO)CCO)nc(N3CCCCC3)c2n1 [dipyridamole]								Consumption of oxygen by the myocardium [12]: does not decrease the consumption of oxygen by the myocardium
